PubChem BioAssay (NCI)
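The compound was tested at five concentrations on cells cultured in 96-well plates, with a 48-hour exposure period. GI50 = concentration required for 50% inhibition of growth. TGI: total growth inhibition.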

Experiments:
Test in all cases: NCI tumour cell line growth inhibition, 48 h
786-0 renal = test system: 786-0 renal
A498 renal = test system: A498 renal
A549 NSCLC = test system: A549 NSCLC
ACHN renal = test system: ACHN renal
BT-549 breast = test system: BT-549 breast
CAKI-1 renal = test system: CAKI-1 renal
CCRF-CEM leukemia = test system: CCRF-CEM leukemia
COLO 205 colon = test system: COLO 205 colon
DU-145 prostate = test system: DU-145 prostate
EKVX NSCLC = test system: EKVX NSCLC
HCC-2998 colon = test system: HCC-2998 colon
HCT-116 colon = test system: HCT-116 colon
HCT-15 colon = test system: HCT-15 colon
HL-60(TB) leukemia = test system: HL-60(TB) leukemia
HOP-62 NSCLC = test system: HOP-62 NSCLC
HOP-92 NSCLC = test system: HOP-92 NSCLC
HS 578T breast = test system: HS 578T breast
HT29 colon = test system: HT29 colon
IGROV1 ovarian = test system: IGROV1 ovarian
K-562 leukemia = test system: K-562 leukemia
KM12 colon = test system: KM12 colon
LOX IMVI melanoma = test system: LOX IMVI melanoma
M14 melanoma = test system: M14 melanoma
MALME-3M melanoma = test system: MALME-3M melanoma
MCF7 breast = test system: MCF7 breast
MDA-MB-231 breast = test system: MDA-MB-231 breast
MDA-MB-435 = test system: MDA-MB-435
MOLT-4 leukemia = test system: MOLT-4 leukemia
NCI-H226 lung = test system: NCI-H226 lung

`CN1CCN(Cc2ccc(NC(=O)c3cncc(C#Cc4c(N)ncc5ccc(C#N)cc45)c3)cc2C(F)(F)F)CC1` was tested. Which GI50 (786-0 renal) did it give?
Its GI50 is 901 nM.

And the TGI (786-0 renal)?
Its TGI is 1710 nM.

What about the GI50 (A498 renal) of the same molecule?
Its GI50 is 1070 nM.

And the TGI (A498 renal)?
Its TGI is 6350 nM.

And the GI50 (A549 NSCLC)?
Its GI50 is 867 nM.

What about the TGI (A549 NSCLC) of the same molecule?
The TGI was 1680 nM.

And the GI50 (ACHN renal)?
The GI50 was 717 nM.

And the TGI (ACHN renal)?
Its TGI is 1390 nM.

And the GI50 (BT-549 breast)?
The GI50 was 6460 nM.

What about the TGI (BT-549 breast) of the same molecule?
Its TGI is 14800 nM.

What about the GI50 (CAKI-1 renal) of the same molecule?
Its GI50 is 943 nM.

And the TGI (CAKI-1 renal)?
The TGI was 1930 nM.

And the GI50 (CCRF-CEM leukemia)?
Its GI50 is 1040 nM.

And the TGI (CCRF-CEM leukemia)?
Its TGI is 3080 nM.

What about the GI50 (COLO 205 colon) of the same molecule?
The GI50 was 121 nM.

And the TGI (COLO 205 colon)?
The TGI was 50000 nM.

And the GI50 (DU-145 prostate)?
Its GI50 is 829 nM.

And the TGI (DU-145 prostate)?
Its TGI is 1590 nM.

What about the GI50 (EKVX NSCLC) of the same molecule?
Its GI50 is 791 nM.

And the TGI (EKVX NSCLC)?
Its TGI is 1570 nM.

And the GI50 (HCC-2998 colon)?
The GI50 was 1720 nM.

What about the TGI (HCC-2998 colon) of the same molecule?
Its TGI is 5030 nM.

What about the GI50 (HCT-116 colon) of the same molecule?
Its GI50 is 700 nM.

And the TGI (HCT-116 colon)?
The TGI was 1440 nM.

And the GI50 (HCT-15 colon)?
The GI50 was 827 nM.

What about the TGI (HCT-15 colon) of the same molecule?
The TGI was 1720 nM.

What about the GI50 (HL-60(TB) leukemia) of the same molecule?
Its GI50 is 1400 nM.

And the TGI (HL-60(TB) leukemia)?
Its TGI is 50000 nM.

And the GI50 (HOP-62 NSCLC)?
The GI50 was 849 nM.

And the TGI (HOP-62 NSCLC)?
Its TGI is 1920 nM.

What about the GI50 (HOP-92 NSCLC) of the same molecule?
The GI50 was 412 nM.

And the TGI (HOP-92 NSCLC)?
Its TGI is 6350 nM.

And the GI50 (HS 578T breast)?
The GI50 was 741 nM.

What about the TGI (HS 578T breast) of the same molecule?
Its TGI is 9450 nM.

And the GI50 (HT29 colon)?
The GI50 was 79 nM.

And the TGI (HT29 colon)?
Its TGI is 1170 nM.

And the GI50 (IGROV1 ovarian)?
The GI50 was 816 nM.

What about the TGI (IGROV1 ovarian) of the same molecule?
Its TGI is 1990 nM.

What about the GI50 (K-562 leukemia) of the same molecule?
The GI50 was 5 nM.

What about the TGI (K-562 leukemia) of the same molecule?
The TGI was 266 nM.

And the GI50 (KM12 colon)?
The GI50 was 5 nM.

And the TGI (KM12 colon)?
Its TGI is 791 nM.

And the GI50 (LOX IMVI melanoma)?
The GI50 was 290 nM.

And the TGI (LOX IMVI melanoma)?
The TGI was 1070 nM.

And the GI50 (M14 melanoma)?
The GI50 was 66.8 nM.

What about the TGI (M14 melanoma) of the same molecule?
The TGI was 729 nM.

What about the GI50 (MALME-3M melanoma) of the same molecule?
Its GI50 is 47.7 nM.

What about the TGI (MALME-3M melanoma) of the same molecule?
The TGI was 331 nM.

And the GI50 (MCF7 breast)?
The GI50 was 694 nM.

What about the TGI (MCF7 breast) of the same molecule?
The TGI was 1590 nM.

And the GI50 (MDA-MB-231 breast)?
The GI50 was 525 nM.

What about the TGI (MDA-MB-231 breast) of the same molecule?
The TGI was 1230 nM.

And the GI50 (MDA-MB-435)?
The GI50 was 333 nM.

What about the TGI (MDA-MB-435) of the same molecule?
The TGI was 1070 nM.

And the GI50 (MOLT-4 leukemia)?
The GI50 was 801 nM.

And the TGI (MOLT-4 leukemia)?
Its TGI is 2960 nM.

And the GI50 (NCI-H226 lung)?
Its GI50 is 294 nM.

And the TGI (NCI-H226 lung)?
The TGI was 14500 nM.
